This passage reports IC50 results from patent US11976083B2, “Inhibitors of peptidylarginine deiminases” (Gilead Sciences, Inc., priority 2020, dated 2024).

The assay concerns the target T1, human PAD4 (Homo sapiens, UniProt Q9UM07).
T1 construct: human PAD4 (NM_012387), A2-P663, was PCR amplified; His-SUMO (N, cleaved yes); made in house; host or cells: E. coli BL21(DE3)
As to the kind of experiment: In vitro PAD4 BAEE biochemical assay. Particulars: BAEE substrate 3 mM, 5 nM PAD4, 2 mM calcium chloride; geometric mean of multiple experiments. Put shortly:
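Assay was run at 25 °C using 3 mM BAEE and 5 nM human PAD4 after a 30 min compound preincubation; ammonia produced over 2 h was quantified by OPA-derived fluorescence. Full inhibition was defined by 50 µM BB-Cl-Amidine, and IC50 came from variable-slope nonlinear regression.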

T1 sequence (Q9UM07 2-663): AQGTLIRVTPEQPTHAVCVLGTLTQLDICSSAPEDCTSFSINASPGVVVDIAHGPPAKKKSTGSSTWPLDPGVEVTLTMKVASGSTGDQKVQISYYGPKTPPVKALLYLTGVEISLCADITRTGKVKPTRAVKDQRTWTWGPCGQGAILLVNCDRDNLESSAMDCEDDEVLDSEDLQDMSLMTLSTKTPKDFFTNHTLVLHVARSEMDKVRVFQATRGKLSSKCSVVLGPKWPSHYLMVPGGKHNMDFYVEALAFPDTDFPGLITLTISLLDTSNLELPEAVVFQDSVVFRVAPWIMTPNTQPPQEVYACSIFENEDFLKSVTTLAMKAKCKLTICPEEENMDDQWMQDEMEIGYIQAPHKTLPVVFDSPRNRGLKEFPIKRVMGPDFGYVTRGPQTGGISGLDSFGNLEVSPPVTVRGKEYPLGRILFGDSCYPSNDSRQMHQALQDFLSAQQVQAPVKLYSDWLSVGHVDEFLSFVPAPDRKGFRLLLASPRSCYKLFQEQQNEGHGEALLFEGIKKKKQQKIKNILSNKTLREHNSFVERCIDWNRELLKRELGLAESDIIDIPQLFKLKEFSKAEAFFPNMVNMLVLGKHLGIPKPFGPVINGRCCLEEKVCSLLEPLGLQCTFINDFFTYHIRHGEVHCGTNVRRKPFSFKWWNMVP

Consider `COc1cc(C(=O)N[C@H]2CNC[C@H]3C[C@H]32)cc2nc(-c3cc4ccc5nc4n3CCCCCCC(C)(C)C(=O)N[C@@H]5C)n(C)c12` [Example 203, ~{N}-[(1~{S},5~{R},6~{R})-3-azabicyclo[4.1.0]heptan-5-yl]-7-methoxy-1-methyl-2-[(11~{R})-8,8,11-trimethyl-9-oxo-1,10,19-triazatricyclo[10.5.2.0^{15,18}]nonadeca-12(19),13,15(18),16-tetraen-17-yl]benzimidazole-5-carboxamide], for which the IC50 (commonly the concentration needed to halve the response being measured) worked out at 0.114 µM.

On to `COc1cc(C(=O)N2CCC[C@@H](N)C2)cc2nc(-c3cc4ccc5nc4n3C[C@@H]3C[C@H]3CCCC(C)C(=O)N[C@@H]5C)n(C)c12` (some centres unmarked) [Example 272, (3~{R},5~{R},12~{R})-18-[5-[(3~{R})-3-aminopiperidine-1-carbonyl]-7-methoxy-1-methyl-benzimidazol-2-yl]-9,12-dimethyl-1,11,20-triazatetracyclo[11.5.2.0^{3,5}.0^{16,19}] icosa-13(20),14,16(19),17-tetraen-10-one], for which the IC50 is 0.069 µM.

In the case of `COc1cc(C(=O)N[C@H]2CNCC[C@@H]2F)cc2nc(-c3cc4ccc5nc4n3CCCCC[C@H]3[C@H](C(=O)N[C@@H]5C)C3(F)F)n(C)c12` [Example 368, 2-[(2~{R},5~{R},7~{S})-6,6-difluoro-2-methyl-4-oxo-3,13,19-triazatetracyclo[11.5.2.0^{5,7}.0^{16,20}]icosa-1(19),14,16(20),17-tetraen-14-yl]- ~{N}-[(3~{S},4~{S})-4-fluoro-3-piperidyl]-7-methoxy-1-methyl-benzimidazole-5-carboxamide], the IC50 worked out at 0.034 µM.

In the case of `COc1cc(C(=O)N2[C@H]3CC[C@@H]2[C@H](N)C3)cc2nc(-c3cc4ccc5nc4n3CCCCCCC(=O)Nc3cnccc3-5)n(C)c12` [Example 95, 17-[5-[(1~{R},2~{R},4~{S})-2-amino-7-azabicyclo[2.2.1]heptane-7-carbonyl]-7-methoxy-1-methyl-benzimidazol-2-yl]-5,8,16,22-tetrazatetracyclo[14.5.2.0^{2,7}.0^{19,23}] tricosa-1(22),2,4,6,17,19(23),20-heptaen-9-one], the IC50 came out at 0.086 µM.

For `COc1cc(C(=O)N2[C@H]3CC[C@@H]2[C@H](N)C3)cc2nc(-c3cc4ccc5cc4n3CCCCCC[C@@](C)(OC)C(=O)N[C@@H]5C)n(C)c12` [Example 340, (8~{R},11~{R})-17-[5-[(1~{R},2~{R},4~{S})-2-amino-7-azabicyclo[2.2.1]heptane-7-carbonyl]-7-methoxy-1-methyl-benzimidazol-2-yl]-8-methoxy-8,11-dimethyl-1,10-diazatricyclo[10.5.2.0^{15,18}]nonadeca-12(19),13,15(18),16-tetraen-9-one], the IC50 turned out to be 0.061 µM.

For the compound `C[C@H]1NC(=O)c2cccc(F)c2CCCCCn2c(-c3nc4cc(C(=O)N[C@H]5CNCC[C@@H]5F)c(F)cc4n3C)cc3ccc1nc32` [Example 352, 6-fluoro-2-[(2~{R})-9-fluoro-2-methyl-4-oxo-3,16,22-triazatetracyclo[14.5.2.0^{5,10).0^{19,23}]tricosa-1(22),5,7,9,17,19(23),20-heptaen-17-yl]-~{N}-[(3~{S),4~{S})-4-fluoro-3-piperidyl]-1-methyl-benzimidazole-5-carboxamide], the IC50 turned out to be 0.053 µM.

With `COc1cc(C(=O)N2CC[C@@H](OC)[C@@H](N)C2)cc2nc(-c3cc4ccc5nc4n3CCCCCC[C@@H](OC)C(=O)N[C@@H]5C)n(C)c12` [Example 628, (8~{R},11~{R})-17-[5-[(3~ {S},4~{R})-3-amino-4-methoxy-piperidine-1-carbonyl]-7-methoxy-1-methyl-benzimidazol-2-yl]-8-methoxy-11-methyl-1,10,19-triazatricyclo [10.5.2.0^{15,18}] nonadeca-12(19),13,15(18),16-tetraen-9-one], the IC50 worked out at 0.083 µM.

On to `COc1cc(C(=O)N2CC[C@@H](OC(F)F)[C@@H](N)C2)cc2nc(-c3cc4ccc5nc4n3CCCCCc3nccnc3C(=O)N[C@@H]5C)n(C)c12` [Example 7, (2~{R})-17-[5-[(3~{S},4~{R})-3-amino-4-(difluoromethoxy)piperidine-1-carbonyl]-7-methoxy-1-methyl-benzimidazol-2-yl]-2-methyl-3,6,9,16,22-pentazatetracyclo[14.5.2.0^{5,10}.0^{19, 23}]tricosa-1(22),5(10),6,8,17,19(23),20-heptaen-4-one], for which the IC50 was 0.101 µM.

For `C[C@H]1NC(=O)c2ccc(Cl)nc2CCCCCn2c(-c3nc4cc(C(=O)N5C[C@H](N)[C@@H]6CC[C@H]5C6)cc(F)c4n3CC3CC3)cc3ccc1nc32` [Example 921, (2~{R})-17-[5-[(1~{S},4~{R},5~ {R})-4-amino-2-azabicyclo [3.2.1]octane-2-carbonyl]-1-(cyclopropylmethyl)-7-fluoro-benzimidazol-2-yl]-8-chloro-2-methyl-3,9,16,22-tetrazatetracyclo[14.5.2.0^ {5,10}.0^{19,23}]tricosa-1(22),5(10),6,8,17,19(23),20-heptaen-4-one], the IC50 was 0.03 µM.

With `C[C@H]1NC(=O)[C@@H]2C[C@H]2CC[C@@H]2[C@H](Cn3c(-c4nc5cc(C(=O)N[C@H]6CNCC[C@@H]6F)c(F)cc5n4C)cc4ccc1nc43)C2(F)F` [Example 386, 2-[(3~{R},5~{R},8~{R},10~{R},13~{R})-4,4-difluoro-13-methyl-11-oxo-1,12,21-triazapentacyclo[12.5.2.0^{3,5}.0^{8,10}.0^ {17,20}]henicosa-14(21),15,17(20),18-tetraen-19-yl]-6-fluoro-~{N}-[(3~{S},4~{S})-4-fluoro-3-piperidyl]-1-methyl-benzimidazole-5-carboxamide], the IC50 came out at 0.024 µM.

Turning to `COc1cc(C(=O)N2CC[C@@H](OC)[C@@H](N)C2)cc2nc(-c3cc4ccc5nc4n3CCCCC[C@H]3C(F)(F)[C@]3(C)C(=O)N[C@@H]5C)n(C)c12` [Example 694, (2~{R},5~{S},7~{R})-14-[5-[(3~{S},4~{R})-3-amino-4-methoxy-piperidine-1-carbonyl]-7-methoxy-1-methyl-benzimidazol-2-yl]-6,6-difluoro-2,5-dimethyl-3,13,19-triazatetracyclo[11.5.2.0^ {5,7}.0^{16,20}]icosa-1(19), 14,16(20),17-tetraen-4-one], the IC50 stood at 0.268 µM.

As for `COc1cc(C(=O)N2CCC[C@@H](N)C2)cc2nc(-c3cc4ccc5nc4n3CCC/C=C/C[C@@](C)(C(F)(F)F)C(=O)N[C@@H]5C)n(C)c12` (single isomer, unassigned) [Example 2, (5˜{E},8˜{R},11˜{R})-17-[5-[(3˜{R})-3-aminopiperidine-1-carbonyl]-7-methoxy-1-methyl-benzimidazol-2-yl]-8,11-dimethyl-8-(trifluoromethyl)-1,10,19-triazatricyclo[10.5.2.0^{15,18}]nonadeca-5,12(19),13,15(18),16-pentaen-9-one], the half-inhibitory concentration (IC50) stood at 0.075 µM.

In the case of `CO[C@@H]1CCN(C(=O)c2cc(F)c3c(c2)nc(-c2cc4ccc5nc4n2CCCCCC2C[C@H]2C(=O)N[C@@H]5C)n3C2CC2)C[C@@H]1N` (some centres unmarked) [Example 579, (2~{R},5~{R},7~{R})-14-[5-[(3~{S),4~{R})-3-amino-4-methoxy-piperidine-1-carbonyl]-1-cyclopropyl-7-fluoro-benzimidazol-2-yl]-2-methyl-3,13,19-triazatetracyclo [11.5.2.0^{5,7}.0^{16,20}] icosa-1(19),14,16(20), 17-tetraen-4-one], the IC50 was determined as 0.05 µM.

For `COc1cc(C(=O)N2CCC[C@@H](N)C2)cc2nc(-c3cc4ccc5nc4n3C[C@@H]3C[C@H]3C(OC)CCCC(=O)N[C@@H]5C)n(C)c12` (some centres unmarked) [Example 264, (3~{R},5~{R},12~{R})-18-[5-[(3~{R})-3-aminopiperidine-1-carbonyl]-7-methoxy-1-methyl-benzimidazol-2-yl]-6-methoxy-12-methyl-1,11,20-triazatetracyclo[11.5.2.0^{3,5}.0^{16,19}] icosa-13(20),14,16(19),17-tetraen-10-one], the IC50 came out at 0.091 µM.

In the case of `COc1cc(C(=O)N2[C@H]3CC[C@@H]2[C@H](N)C3)cc2nc(-c3cc4ccc5nc4n3C[C@H]3C[C@@H]3COCCC(=O)N[C@@H]5C)c(C3CC3)n12` [Example 214, (3~{S),5~{S},12~{R})-18-[7-[(1~{R},2~{R},4~{S})-2-amino-7-azabicyclo[2.2.1]heptane-7-carbonyl]-3-cyclopropyl-5-methoxy-imidazo[1,2-a]pyridin-2-yl]-12-methyl-7-oxa-1,11,20-triazatetracyclo[11.5.2.0^{3,5}.0^{16,19}] icosa-13(20),14,16(19),17-tetraen-10-one], the half-inhibitory concentration (IC50) came out at 0.015 µM.

Turning to `C[C@H]1NC(=O)c2ccc(Cl)nc2CCCCCn2c(-c3nc4cc(C(=O)N5C[C@H](N)[C@@H]6CC[C@H]5C6)cc(F)c4n3[C@H]3C[C@@H]3F)cc3ccc1nc32` [Example 840, (2~{R})-17-[5-[(1~{S), 4~{R},5~{R})-4-amino-2-azabicyclo[3.2.1]octane-2-carbonyl]-7-fluoro-1-[(1~ {S},2~{S})-2-fluorocyclopropyl]benzimidazol-2-yl]-8-chloro-2-methyl-3,9,16,22-tetrazatetracyclo[14.5.2.0^ {5,10).0^{19,23}]tricosa-1(22), 5(10),6,8,17,19(23),20-heptaen-4-one], the IC50 was 0.061 µM.

As for `COc1cc(C(=O)N2CCC[C@@H](N)C2)cc2nc(-c3cc4ccc5nc4n3CCCCCc3c(cnn3C)C(=O)N[C@@H]5C)n(C)c12` [Example 170, (2~{R})-16-[5-[(3~{R})-3-aminopiperidine-1-carbonyl]-7-methoxy-1-methyl-benzimidazol-2-yl]-2,8-dimethyl-3,7,8,15,21-pentazatetracyclo[13.5.2.0^{5,9).0^{18,22}] docosa-1(21),5(9),6,16,18(22),19-hexaen-4-one], the IC50 is 0.118 µM.
